{
  "source": "patent US20140249167A1",
  "about": "“Administration of NEDD8-Activating Enzyme Inhibitor” (priority 2010, published 2014)",
  "assay_type_in_all_cases": "in vivo",
  "key": {"[1]": {"test_system": "adults with advanced nonhematologic malignancies (solid tumors)", "test": "Study C15001, phase 1, four 21-day dose schedules", "details": "for Findings: Prolonged stable disease in (tumor, cycles): as of Oct. 16, 2011; for DLTs occurred (Grade 3 LFTs): in vivo", "experimental": "Study C15001 is a first-in-human, phase 1 study in adults with advanced nonhematologic malignancies testing the tolerability of four 21-day dose schedules, including the following: Schedule A: QD×5; Schedule B: Days 1, 3, and 5 given with dexamethasone; and Schedule C: Days 1, 3, and 5 given without dexamethasone. Dose escalation is based on an adaptive approach using the continual reassessment method (CRM).\nSchedule A (QD×5) testing started with 25 mg/m^2 and proceeded through 83 mg/m^2. Increases in liver function tests (LFTs) (AST, ALT, ALP and bilirubin) occurred during Cycle 1 following both single and multiple MLN4924 doses. LFT increases were dose limiting at doses exceeding 50 mg/m^2. Grade 3 and 4 LFT elevations occurred in 2 patients, who both died during the first week of study treatment. One death occurred in a patient with widely metastatic breast cancer receiving 61 mg/m^2, and the second occurred in a patient with advanced colon cancer receiving 83 mg/m^2. In both cases, the investigators assessed the hepatic toxicity as possibly related to MLN4924. As a result of these deaths and their association with increases in transaminase and bilirubin, all ongoing MLN4924 studies were amended to require that bilirubin levels be normal (<ULN) and that ALT and AST levels correspond with […] Grade 1 intensity before administering initial and all subsequent doses of MLN4924. LFTs are checked prior to administration of every dose.\nThe MTD for Study C15001 Schedule A was determined to be 50 mg/m^2 QD×5. […] Three DLTs have occurred on Schedule B (Grade 3 LFTs), and 2 DLTs have occurred on Schedule C (Grade 3 LFTs). The MTD for these dosing schedules was determined to be 50 mg/m^2 and 67 mg/m^2, respectively. […]\nStudy C15001 is a phase 1 study in adults with advanced nonhematologic malignancies testing the tolerability of four 21-day dose schedules, including one intermittent dosing schedule, Schedule D, on which doses are administered on Days 1, 8, and 15 as a 3-hour infusion. As of Oct. […] Patients have been enrolled to the following dose levels: 147 mg/m^2 and 196 mg/m^2. Testing continues, and dose escalation is based on an adaptive approach using the continual reassessment method (CRM). […]"}, "[2]": {"test_system": "adults with lymphoma or multiple myeloma", "test": "Study C15002, phase 1, 3 dose schedules on a 21-day cycle", "text": "Study C15002 is a phase 1 study in adults with lymphoma or multiple myeloma testing 3 dose schedules, each repeated on a 21-day cycle. One such schedule is Schedule A: Days 1, 2, 8, and 9.\nAs used herein, “dose-limiting toxicity” (DLT) is defined as any of the following events that are considered by the administering physician to be related to therapy with MLN4924: • Grade 4 neutropenia (ANC<500 cells/mm^3) lasting more than 7 consecutive days • Grade 3 neutropenia with fever and/or infection, where fever is defined as an oral temperature[…] • Grade 4 thrombocytopenia (platelets<25,000/mm^3 but >10,000/mm^3) lasting more than 7 consecutive days • Grade 3 thrombocytopenia with bleeding • A platelet count<10,000/mm^3 at any time • Grade 3 or greater nausea and/or emesis despite the use of optimal anti-emetic prophylaxis (wherein “optimal anti-emetic prophylaxis” is defined as an anti-emetic regimen that employs a 5-HT3 antagonist given in standard doses and according to standard schedules). Dexamethasone should not be used because of its CYP3A-inducing effects. • Grade 3 or greater diarrhea that occurs despite maximal supportive therapy • An absolute reduction in LVEF of ≧10% to a value<50% (e.g., LVEF=45% in a patient with LVEF=55% at baseline) • A decrease in LVEF to <40% • An increase in PASP to >50 mm Hg or 3× baseline • Any other Grade 3 or greater nonhematologic toxicity with the following exceptions: • Grade 3 arthralgia/myalgia • Brief (<1 week) Grade 3 fatigue • Grade 3 fever that occurs in the absence of Grade 3 or worse neutropenia or documented infection following daily administration of MLN4924 • Treatment delay of more than 1 week because of a lack of adequate recovery of MLN4924-related hematological or nonhematologic toxicities • MLN4924-related toxicity that requires that any doses of MLN4924 are missed during a cycle or discontinuation of therapy with MLN4924\nStudy C15002 is a phase 1 study in adults with lymphoma or multiple myeloma testing 3 dose schedules, each repeated on a 21-day cycle. Two such schedules are intermittent dosing schedules, Schedule B: Days 1, 4, 8, and 11; and Schedule C: Days 1 and 8. As of Oct. […] Patients on Schedule B were enrolled to dose levels of 110 mg/m^2, 147 mg/m^2, 196 mg/m^2 and 261 mg/m^2 before the MTD was determined to be 196 mg/m^2. […]\n(§1) Although DLTs can occur at any point during treatment, only DLTs occurring during Cycle 1 of treatment will necessarily influence decisions regarding dose escalation, expansion of a dose level, or evaluation of intermediate dose levels. Patients are monitored through all cycles of therapy for treatment-related toxicities."}, "[3]": {"test_system": "adults with acute myelogenous leukemia and myelodysplastic syndrome", "test": "Study C15003, phase 1, 3 dose schedules on a 21-day cycle"}, "[4]": {"test_system": "adults with metastatic melanoma", "test": "Study C15005, phase 1 dose-escalation study", "experimental": "As used herein, “dose-limiting toxicity” (DLT) is defined as any of the following events that are considered by the administering physician to be related to therapy with MLN4924: • Grade 4 neutropenia (ANC<500 cells/mm^3) lasting more than 7 consecutive days • Grade 3 neutropenia with fever and/or infection, where fever is defined as an oral temperature[…] • Grade 4 thrombocytopenia (platelets<25,000/mm^3 but >10,000/mm^3) lasting more than 7 consecutive days • Grade 3 thrombocytopenia with bleeding • A platelet count<10,000/mm^3 at any time • Grade 3 or greater nausea and/or emesis despite the use of optimal anti-emetic prophylaxis (wherein “optimal anti-emetic prophylaxis” is defined as an anti-emetic regimen that employs a 5-HT3 antagonist given in standard doses and according to standard schedules). […]\nStudy C15005 is a phase 1, dose-escalation study in adults with metastatic melanoma testing MLN4924 dosing on Days 1, 4, 8, and 11 (Schedule A) or Days 1, 8 and 15 (Schedule B) repeated every 21 days. […] Patients were enrolled to dose levels of 50 mg/m^2, 67 mg/m^2, 89 mg/m^2, 118 mg/m^2, 157 mg/m^2, 209 mg/m^2 and 278 mg/m^2 before the MTD was determined to be 209 mg/m^2. […]\nas §1"}, "[5]": {"details": "Schedule B: Days 1, 4, 8, 11, at 147 mg/m^2"}},
  "note": "Entries after “also recorded” stand apart in the source; their conditions may differ.",
  "data": [
    {"compound": "NS(=O)(=O)OC[C@@H]1C[C@@H](n2ccc3c(N[C@H]4CCc5ccccc54)ncnc32)C[C@@H]1O", "note": "[MLN4924, ((1S,2S,4R)-4-(4-((1S)-2,3-dihydro-1H-inden-1-ylamino)-7H-pyrrolo[2,3-d]-pyrimidin-7-yl)-2-hydroxycyclopentyl)methyl sulfamate]", "values": [
      {"measurement": "Doses at which LFT increases were dose limiting", "setting": "[1]; Schedule A (QD×5), Cycle 1, AST, ALT, ALP and bilirubin", "result": "exceeding 50 mg/m^2"},
      {"measurement": "Grade 3 and 4 LFT elevations, patients who both died during first week of treatment", "setting": "[1]; Schedule A, one at 61 mg/m^2, one at 83 mg/m^2", "result": 2, "unit": "patients"},
      {"measurement": "Dose, MTD not reached (→)", "setting": "[1]; Schedule D: Days 1, 8, 15, 3-hr infusion, 21-day cycle, solid tumors", "result": "≥ 196", "unit": "mg/m^2"},
      {"measurement": "Findings: Prolonged stable disease in (tumor, cycles)", "setting": "[1]; Schedule D: Days 1, 8, 15, 3-hr infusion", "result": "Colon cancer (6+ cycles); also recorded: NSCLC^5 (5+ cycles)"},
      {"measurement": "Findings: Prolonged stable disease in (tumor, cycles)", "setting": "[1]; Schedules A, B, C (findings cell spans the three schedules)", "result": "Melanoma (7, 7, 10 cycles); also recorded: SCLC^5 (7 cycles),; also recorded: CRC^5 (5, 5, 9 cycles),; also recorded: Breast (5, 7 cycles); also recorded: Head and Neck (7 cycles)"},
      {"measurement": "DLTs occurred (Grade 3 LFTs)", "setting": "[1]; human, 21 days", "result": 2},
      {"measurement": "DLTs occurred (Grade 3 LFTs)", "setting": "[1]", "result": "Three DLTs"},
      {"measurement": "Findings", "setting": "[2]; Schedule A: Days 1, 2, 8, 9, Hodgkin's Lymphoma (7 cycles)", "result": "Partial remission in Hodgkin's"},
      {"measurement": "Adverse event in one patient (did not contribute to definition of MTD)", "setting": "[2]; Schedule A, 110 mg/m^2 expansion cohort", "result": "Grade 3 AST and ALT elevation"},
      {"measurement": "DLTs observed", "setting": "[2]; Schedule B: Days 1, 4, 8, 11, as of Oct. 7, 2011", "result": "no DLTs have been observed"},
      {"measurement": "DLTs", "setting": "[2]; Schedule C: Days 1 and 8, at 196 mg/m^2", "result": "One DLT occurred on Schedule C at 196 mg/m^2 (reversible Grade 3 renal failure)"},
      {"measurement": "DLTs", "setting": "[3]; Schedule A: Days 1, 3, 5, at 78 mg/m^2", "result": "Two DLTs occurred at 78 mg/m^2 (multi-organ failure and reversible elevation of ALT)"},
      {"measurement": "Kind of DLTs", "setting": "[3]; [5]", "result": "lactic acidosis and hypotension, GI necrosis, and acute renal failure"},
      {"measurement": "Number of DLTs", "setting": "[3]; [5]", "result": "Four DLTs in three patients"},
      {"measurement": "MTD (maximum tolerated dose)", "setting": "[3]; Schedule B: Days 1, 4, 8, 11 of 21-day cycle, AML, MDS", "result": 83, "unit": "mg/m^2"},
      {"measurement": "Findings: Prolonged stable disease in (tumor, cycles)", "setting": "[4]; Schedule A: Days 1, 4, 8, 11", "result": "Melanoma (5, 6, 6, 6, 10, 12 cycles)"},
      {"measurement": "Findings: Prolonged stable disease in (tumor, cycles)", "setting": "[4]; Schedule B: Days 1, 8, 15", "result": "Melanoma (11+ cycles)"},
      {"measurement": "Number of DLTs", "setting": "[4]; in vivo", "result": "two DLTs have occurred"}
    ]}
  ]
}
